# Experimental data: PubChem BioAssay (NCI)
#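 Five compound concentrations were applied to cells in 96-well plates for 48 hours; endpoints were derived by simple linear interpolation of the resulting dose-response curve. At the GI50, growth is halved. At the TGI there is no net growth.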
# How the values were obtained:
# Experiment in all cases: inhibition of tumour cell growth, NCI panel, 48 h
# [1] = system: HOP-92 NSCLC
# [2] = system: SF-295 CNS
# [3] = system: HT29 colon
# [4] = system: HCT-15 colon
# [5] = system: OVCAR-4 ovarian
# [6] = system: MOLT-4 leukemia
# [7] = system: SK-MEL-5 melanoma
# [8] = system: A498 renal
# [9] = system: RPMI-8226 leukemia
Compound,TGI [1],TGI [2],TGI [3],TGI [4],TGI [5],TGI [6],TGI [7],TGI [8],TGI [9],GI50 [8],GI50 [1],GI50 [2],GI50 [3],GI50 [4],GI50 [5],GI50 [6],GI50 [9],GI50 [7]
O=C(CO)CC(=O)C(=O)Nc1ccccc1,> 100 µM,> 100 µM,> 100 µM,> 100 µM,> 100 µM,> 100 µM,> 100 µM,,,,,,,,,,,
CC(C)c1ccc(C2C3=C(N=C4SCC(=O)N42)C(=O)c2ccccc23)cc1 (stereo not drawn),> 100 µM,> 100 µM,> 100 µM,> 100 µM,> 100 µM,> 100 µM,> 100 µM,> 100 µM,> 100 µM,,,,,,,,,
COC(=O)C(=O)OC1(C(C)=O)CC2(c3ccccc3)OC1(c1ccccc1)c1ccccc12 (stereo not drawn),27 µM,31.4 µM,30.7 µM,34.1 µM,51.1 µM,> 100 µM,28.8 µM,33.4 µM,> 100 µM,,,,,,,,,
O=C1NC(=O)C2C(=O)NC(=O)C1C2(c1ccccc1)c1cc[nH]c1 (stereo not drawn),> 100 µM,> 100 µM,> 100 µM,> 100 µM,> 100 µM,> 100 µM,> 100 µM,> 100 µM,> 100 µM,,,,,,,,,
N#Cc1c(NN)nc(NN)c(C#N)c1-c1ccccc1,> 100 µM,> 100 µM,> 100 µM,> 100 µM,> 100 µM,> 100 µM,> 100 µM,> 100 µM,> 100 µM,,,,,,,,,
Cc1cc2nc(CCC(=O)O)c(=O)[nH]c2cc1C,> 100 µM,> 100 µM,> 100 µM,> 100 µM,> 100 µM,> 100 µM,> 100 µM,> 100 µM,> 100 µM,,,,,,,,,
CCOc1ccccc1NC(=O)CC1SC(=Nc2ccc([N+](=O)[O-])cc2)NC1=O (stereo not drawn),25.8 µM,34.9 µM,50.6 µM,,29.8 µM,60.3 µM,30 µM,,28.9 µM,,,,,,,,,
CC(=O)[CH-]C(=O)c1ccccc1.CC(=O)[CH-]C(=O)c1ccccc1.CC(C)CCCC(C)[C@H]1CCC2[C@@H]3CC=C4C[C@@H]([O-])CC[C@]4(C)C3CC[C@@]21C.CC[O-].[Ti+4] (stereo partly drawn),94 µM,> 100 µM,> 100 µM,> 100 µM,> 100 µM,63.1 µM,> 100 µM,> 100 µM,52.2 µM,53.1 µM,33.8 µM,40.9 µM,64 µM,53.8 µM,91.6 µM,16.4 µM,18.5 µM,35.2 µM
CC1(CO)OC(n2cc(C(=O)NC(=O)OCc3ccccc3)c(=O)[nH]c2=O)CC1O (stereo not drawn),> 100 µM,> 100 µM,> 100 µM,> 100 µM,,> 100 µM,> 100 µM,> 100 µM,> 100 µM,,,,,,,,,
O=C(CC1(O)C(=O)Nc2c(Cl)ccc(Cl)c21)c1ccc2ccccc2c1 (stereo not drawn),,27.7 µM,8.61 µM,27 µM,5.92 µM,38.9 µM,17.7 µM,34.7 µM,31 µM,,,,,,,,,
N#CC(C(=O)/C(=N/N)C(C#N)c1ccccc1)c1ccccc1 (stereo not drawn),> 100 µM,> 100 µM,> 100 µM,> 100 µM,> 100 µM,> 100 µM,> 100 µM,,> 100 µM,,,,,,,,,
CC(=O)OC[C@]1(O)CC[C@@]23CC1C[C@@H]2CCC1C(C)(C)CCC[C@@]13C (stereo partly drawn),27.8 µM,32 µM,25.7 µM,30 µM,30 µM,15.8 µM,28.2 µM,,28.1 µM,,,,,,,,,
O=c1cc2ccccc2nn1Cc1cccc(Cl)c1,> 100 µM,> 100 µM,> 100 µM,> 100 µM,> 100 µM,,> 100 µM,> 100 µM,> 100 µM,,,,,,,,,
Oc1ccccc1C=NCc1ccco1,,> 100 µM,> 100 µM,,> 100 µM,> 100 µM,,> 100 µM,> 100 µM,,,,,,,,,
CCC/C(=N/NC(=O)C(N)=O)C(CC)C(=O)CCC(=O)N(Cc1ccccc1)Cc1ccccc1 (stereo not drawn),> 100 µM,> 100 µM,> 100 µM,> 100 µM,,> 100 µM,> 100 µM,> 100 µM,> 100 µM,,,,,,,,,
COc1cc(/C=C(\C#N)C(=O)c2ccccc2)ccc1O,,> 100 µM,> 100 µM,> 100 µM,> 100 µM,> 100 µM,> 100 µM,> 100 µM,> 100 µM,,,,,,,,,
CC(=O)[CH-]C(=O)c1ccccc1.CC(=O)[CH-]C(=O)c1ccccc1.CC1(C)C2CCC1(C)C([O-])C2.CC1(C)C2CCC1(C)C([O-])C2.[Ti+4],34.9 µM,> 100 µM,> 100 µM,> 100 µM,> 100 µM,> 100 µM,39.1 µM,,> 100 µM,,12.9 µM,38.9 µM,56.7 µM,30.9 µM,97.3 µM,34.8 µM,25 µM,21.9 µM
N#C/C(=C/c1ccc[nH]1)P(=O)(O)O,> 100 µM,> 100 µM,> 100 µM,> 100 µM,> 100 µM,> 100 µM,> 100 µM,,> 100 µM,,,,,,,,,
